In ChEMBL document CHEMBL1201862, “PubChem BioAssay data set” (2004):
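Values below derive from 48-hour exposures of cells grown in 96-well plates, with endpoints linearly interpolated between the two concentrations bracketing the appropriate inhibition level. GI50 = concentration required for 50% inhibition of growth.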 Active and inactive are the calls of the source. No stated cut-off is given here; in the data, active = GI50 up to about 1.1 µM and inactive = higher.

Legend:
Experiment in all cases: NCI-60 cell line screen, 48 h
[1] = test system: A549
[2] = test system: ACHN
[3] = test system: COLO 205
[4] = test system: EKVX
[5] = test system: HOP-92
[6] = test system: K562
[7] = test system: NCI-H226
[8] = test system: OVCAR-5
[9] = test system: SK-MEL-28
[10] = test system: SW-620
[11] = test system: TK-10
[12] = test system: UO-31
[13] = test system: SR
[14] = test system: SF-539

| SMILES | GI50 [1] | GI50 [2] | GI50 [3] | GI50 [4] | GI50 [5] | GI50 [6] | GI50 [7] | GI50 [8] | GI50 [9] | GI50 [10] | GI50 [11] | GI50 [12] | GI50 [13] | GI50 [14] |
| --- | --- | --- | --- | --- | --- | --- | --- | --- | --- | --- | --- | --- | --- | --- |
| O=C(c1ccccc1)C(c1ccccc1)C1(O)C(=O)Nc2c(Cl)cc(Cl)cc21 (configuration not stated) | 18.9 µM (inactive) | 17.1 µM (inactive) | 19.1 µM (inactive) | 14.2 µM (inactive) | 18.9 µM (inactive) | 15.5 µM (inactive) | 16.7 µM (inactive) | 17.1 µM (inactive) | 18.9 µM (inactive) | 14.4 µM (inactive) | 18.3 µM (inactive) | 18.9 µM (inactive) |  |  |
| C#CCn1c(=O)c2cccnc2n(CC#C)c1=O | > 100 µM (inactive) | > 100 µM (inactive) | > 100 µM (inactive) |  | > 100 µM (inactive) |  | > 100 µM (inactive) | > 100 µM (inactive) | > 100 µM (inactive) | > 100 µM (inactive) | > 100 µM (inactive) |  | > 100 µM (inactive) |  |
| O=C1C=CC2(C=C1)CCNC1=C2C(=O)c2ccccc2C1=O | > 100 µM (inactive) | > 100 µM (inactive) | > 100 µM (inactive) | > 100 µM (inactive) | > 100 µM (inactive) | > 100 µM (inactive) | > 100 µM (inactive) | > 100 µM (inactive) | > 100 µM (inactive) | > 100 µM (inactive) | > 100 µM (inactive) | > 100 µM (inactive) |  | > 100 µM (inactive) |
| C/C(=N\[N+](C)(C)C)C(c1ccccc1)C1(c2ccccc2)C(c2ccccc2)=C1c1ccccc1 (configuration not stated) | > 100 µM (inactive) | 88.1 µM (inactive) |  | 40.7 µM (inactive) | 50.9 µM (inactive) | > 100 µM (inactive) | 19.4 µM (inactive) | > 100 µM (inactive) |  | > 100 µM (inactive) | 90.2 µM (inactive) | 53.1 µM (inactive) |  | 37.5 µM (inactive) |
| O=C(O)/C=C\C(=O)Nc1ccc(S(=O)(=O)c2ccc(NC(=O)/C=C\C(=O)O)cc2)cc1 | > 100 µM (inactive) | > 100 µM (inactive) | > 100 µM (inactive) | > 100 µM (inactive) | > 100 µM (inactive) | > 100 µM (inactive) | > 100 µM (inactive) | > 100 µM (inactive) | > 100 µM (inactive) | > 100 µM (inactive) | > 100 µM (inactive) | > 100 µM (inactive) | > 100 µM (inactive) | > 100 µM (inactive) |
| N#CC(NNC(=O)c1ccccc1O)c1cccc(O)c1 (configuration not stated) | 2.21 µM (inactive) | 2.31 µM (inactive) | 32.7 µM (inactive) |  | 4.25 µM (inactive) | 2.31 µM (inactive) | 11.5 µM (inactive) | 54.7 µM (inactive) | > 100 µM (inactive) | 30.1 µM (inactive) | > 100 µM (inactive) | 1.55 µM (inactive) | > 100 µM (inactive) | 2.93 µM (inactive) |
| c1cc(-c2cn3ccsc3n2)ccn1 | > 100 µM (inactive) | > 100 µM (inactive) | > 61.9 µM (inactive) | > 41.8 µM (inactive) | > 100 µM (inactive) | > 47.2 µM (inactive) | > 100 µM (inactive) | > 100 µM (inactive) | > 100 µM (inactive) | > 43.1 µM (inactive) | > 100 µM (inactive) | > 100 µM (inactive) | 65.9 µM (inactive) | > 100 µM (inactive) |
| CCN(CC)CC1c2ccccc2C(CNc2ccccc2)N1C (configuration not stated) | > 100 µM (inactive) | > 100 µM (inactive) | > 100 µM (inactive) | > 100 µM (inactive) | 30.1 µM (inactive) | 57.8 µM (inactive) |  | > 100 µM (inactive) | > 100 µM (inactive) | > 100 µM (inactive) | > 100 µM (inactive) | > 100 µM (inactive) |  |  |
| O.O=C([O-])c1ccccc1Nc1ccccc1C(=O)[O-].[Zn+2] | 47.1 µM (inactive) | > 100 µM (inactive) | > 49.7 µM (inactive) | 24.7 µM (inactive) | 18.7 µM (inactive) | 28.9 µM (inactive) | 31 µM (inactive) | 28.2 µM (inactive) | 19.9 µM (inactive) | 23.6 µM (inactive) | 95.1 µM (inactive) | > 44.7 µM (inactive) | 19 µM (inactive) | 37.7 µM (inactive) |
| O=C(N/C=C/C=C/Sc1ccccc1)OCc1ccccc1 | 20.4 µM (inactive) | 27.2 µM (inactive) | 17.7 µM (inactive) | 24.8 µM (inactive) | 23.2 µM (inactive) | 15.4 µM (inactive) | 19.9 µM (inactive) | 14.3 µM (inactive) | 18.7 µM (inactive) | 17.7 µM (inactive) | 24.3 µM (inactive) | 17.5 µM (inactive) | 36.3 µM (inactive) | 16.5 µM (inactive) |
| Cc1oc2c(C)c3oc(=O)cc(C)c3cc2c1CNC(=O)[C@@H]1OCCOCCOCCOCCOCCOC1C(=O)O (some centres not stated) | > 100 µM (inactive) | > 100 µM (inactive) | > 100 µM (inactive) | > 100 µM (inactive) | > 100 µM (inactive) | > 100 µM (inactive) | > 100 µM (inactive) | > 100 µM (inactive) |  | > 100 µM (inactive) | > 100 µM (inactive) | > 100 µM (inactive) | > 100 µM (inactive) | > 100 µM (inactive) |
| Cn1cc(NC(=O)c2cc(NC(=O)CCCCCCC(=O)Nc3cc(C(=O)Nc4cc(C(=O)NCCC(=N)N)n(C)c4)n(C)c3)cn2C)cc1C(=O)NCCC(=N)N | 7.29 µM (inactive) | 8.85 µM (inactive) | 6.08 µM (inactive) | 16.7 µM (inactive) | > 100 µM (inactive) | 5.35 µM (inactive) |  | > 100 µM (inactive) | 4.22 µM (inactive) | 29.7 µM (inactive) | 11.6 µM (inactive) | 39.4 µM (inactive) |  | 14.1 µM (inactive) |
| COc1ccc(-c2cc(C(=O)Nc3ccc(C)c(C)c3)nc(NC#N)n2)cc1 | > 100 µM (inactive) | > 100 µM (inactive) | > 100 µM (inactive) | > 100 µM (inactive) |  | > 100 µM (inactive) |  | > 100 µM (inactive) | > 100 µM (inactive) | > 100 µM (inactive) | > 100 µM (inactive) | > 100 µM (inactive) |  | > 100 µM (inactive) |
| Cc1ccc(C(=O)O)cc1NC(=O)c1cc(/C=C/c2ccccc2)[nH]c(=S)n1 | > 65.8 µM (inactive) | > 89.9 µM (inactive) | > 65.8 µM (inactive) | > 100 µM (inactive) | > 100 µM (inactive) | > 54.8 µM (inactive) | > 100 µM (inactive) | > 100 µM (inactive) | > 100 µM (inactive) | > 28.9 µM (inactive) | > 100 µM (inactive) | > 100 µM (inactive) | > 100 µM (inactive) | > 100 µM (inactive) |
| O=[N+]([O-])c1ccc(-c2noc(-c3ccccc3)c2C2=NCCN2)cc1 | > 100 µM (inactive) | > 100 µM (inactive) | 45.5 µM (inactive) | > 100 µM (inactive) |  | > 100 µM (inactive) | 75.2 µM (inactive) | > 100 µM (inactive) | > 100 µM (inactive) | > 100 µM (inactive) |  | 24.9 µM (inactive) | 81.8 µM (inactive) | 42.7 µM (inactive) |
| N=C(N)C1=C(O)NC(=O)N(C2CCCCC2)C1 | > 100 µM (inactive) | > 100 µM (inactive) | > 100 µM (inactive) |  | > 100 µM (inactive) | > 100 µM (inactive) | > 100 µM (inactive) | > 100 µM (inactive) | > 100 µM (inactive) | > 100 µM (inactive) | > 100 µM (inactive) | > 100 µM (inactive) | > 100 µM (inactive) | > 100 µM (inactive) |
| N#Cc1cccc(-n2[nH]c(=O)ccc2=O)c1 | > 100 µM (inactive) | > 100 µM (inactive) | > 100 µM (inactive) |  | > 100 µM (inactive) | > 100 µM (inactive) | > 100 µM (inactive) | > 100 µM (inactive) | > 100 µM (inactive) | > 100 µM (inactive) | > 100 µM (inactive) | > 100 µM (inactive) | > 100 µM (inactive) | > 100 µM (inactive) |
| COCN1C(=O)C2CC(/C=C/C(N)=O)=CN2C(=O)c2ccccc21 (configuration not stated) | > 100 µM (inactive) |  | > 100 µM (inactive) | > 100 µM (inactive) |  | > 100 µM (inactive) | > 100 µM (inactive) |  | > 100 µM (inactive) | > 100 µM (inactive) | > 100 µM (inactive) |  |  | > 100 µM (inactive) |
| COc1cc([C@@H]2c3cc4c(cc3[C@@H](NC(=O)c3ccccc3)C3COC(=O)[C@@H]32)OCO4)cc(OC)c1O (some centres not stated) | 1.04 µM (active) | 1.45 µM (inactive) | 17.5 µM (inactive) | 21.4 µM (inactive) | 8.39 µM (inactive) | 3.27 µM (inactive) | 1.53 µM (inactive) | 49.9 µM (inactive) | 13.8 µM (inactive) | 10.3 µM (inactive) | 32.4 µM (inactive) | 4.89 µM (inactive) |  | 6.14 µM (inactive) |
| COc1cc2nncc(Sc3cnnc4ccccc34)c2cc1OC | 25.5 µM (inactive) | 20.1 µM (inactive) | 22.6 µM (inactive) | 37.1 µM (inactive) | 6.14 µM (inactive) | 26 µM (inactive) | 23.7 µM (inactive) | 27 µM (inactive) | 23 µM (inactive) | 16.6 µM (inactive) | 29 µM (inactive) | 19.1 µM (inactive) |  | 21 µM (inactive) |
| CCN(CC)CCOC(c1ccccc1)c1ccccc1.CCOC(=O)Nc1ccc(S(=O)(=O)NCCCl)cc1.CCOC(=O)Nc1ccc(S(=O)(=O)NCCCl)cc1.Nc1ccc(C(=O)O)c(O)c1 | > 100 µM (inactive) | > 100 µM (inactive) | > 100 µM (inactive) | > 100 µM (inactive) | > 100 µM (inactive) | > 100 µM (inactive) | > 100 µM (inactive) | > 100 µM (inactive) | > 100 µM (inactive) | > 100 µM (inactive) | > 100 µM (inactive) | > 100 µM (inactive) |  | > 100 µM (inactive) |
